# Measured values taken from patent publication US7928368B2, “Micropillar array electrospray chip” (Licentia Oy, priority 2007, dated 2011).
# Structures can show the parent of a compound that is named as a salt.
# System: rat hepatocytes
# Test: metabolism sample: incubation of sibutramine with rat hepatocytes, metabolites detected by μPESI/MS
# Format: in vitro ADME
# Conditions: R-enantiomer of sibutramine hydrochloride incubated with rat hepatocytes for 8 h, 2.5-μl injection, Q-TOF Micro
# Protocol: For bioanalysis experiments verapamil, angiotensin I, angiotensin II, substance P, and horse heart myoglobin were used as test compounds and 2.5 μl of each sample was pipetted to the sample introduction spot. For the measurements of linearity and sensitivity verapamil was dissolved into acetonitrile:water (95:5) with 0.1% formic acid at concentrations of 10 pM to 10 μM. The metabolism sample was prepared by incubating R-enantiomer of sibutramine hydrochloride (purity>99%) with rat hepatocytes for 8 h. After sample preparation the sample was evaporated dryness and the residue was diluted to 50 μl of methanol. 10 μl of sample was dissolved into 500 μl acetonitrile:water (95:5) with 0.1% formic acid.
# The peptides (angiotensin I, angiotensin II, and substance P) and the protein (horse heart myoglobin) were diluted into 80% aqueous methanol containing 1% acetic acid (two separate samples). The concentrations were 5 μM for the peptides and 300 nM for horse heart myoglobin. Full-scan mass spectra ranging from m/z 400 to 750 were measured from the peptide mixture and m/z 700 to 950 from the protein in the positive mode. Sibutramine metabolism sample was measured with Q-TOF Micro. A mass spectrum of solvent blank sample was subtracted from that of metabolism sample. […]
structure (smiles),measurement,value
"CC(C)CC(N(C)C)C1(c2ccc(Cl)cc2)CCC1 (stereo not shown) [sibutramine, sibutramine hydrochloride]",sibutramine metabolites found in metabolism sample,small amounts of sibutramine glucuronides were found
